Assays:
[1] = Particle size distribution by laser light diffraction (Beckman Coulter LS 230); details: for Particle size / particle size distribution by laser light diffraction, in words: based on FIGS. 1-4; for Dv10 / Dv50 / Dv90: volume weighted, Fraunhofer model, suspended in glycerol and water (1:1), 100 mg sample
[2] = 10 g sample, 3 min sieving; for Particle size distribution (Alpine AJS) <425 μm: mass fraction passing 425 μm sieve; for Particle size distribution (Alpine AJS) >75 μm: mass fraction retained on 75 μm sieve; for Particle size distribution (Alpine AJS) >180 μm: mass fraction retained on 180 μm sieve
Text: In general, the method for carrying out an air jet sieving procedure is as follows.
Together with sample material the sieve is placed on the unit and covered with a lid. A powerful industrial vacuum cleaner generates a strong jet of air which disperses the particles on the sieve through the slotted nozzle rotating below the sieve mesh. Thus the particles are dispersed with each rotation and are distributed over the complete sieve surface. The jet of air causes a continuous new orientation of the particles on the sieve surface. Particles with sizes smaller than the sieve apertures are sucked in by the vacuum cleaner. When using sieves of certain height (e.g. 25 mm height), the inflowing air causes the particles to impact on the lid, thereby helping to destroy agglomerates. The material remaining on the sieve can then be weighed, allowing the amount of the sample having a particle size greater than the aperture of the mesh to be calculated.
Preferably, the sample amount is representative of the sample, and has a mass of at least 10 g. Thus, in one embodiment, the sample amount is 10 g. In this or any other embodiment, sieving time is suitably 3 minutes.
The sieves for use in the air jet sieving method are woven metal sieves. The technical requirements of the test sieves are specified in ISO standard ISO 3310-1:2016 Test sieves—Technical requirements and testing—Part 1: Test sieves of metal wire cloth. The sieves are also according to standard ASTM E11.
The sieving is done according to the process described in Ph.Eur. 2.9.38 Particle-size distribution estimation by analytical sieving. Air jet sieving method is used to determine the mass distribution of particles.
Sieving was done using woven metal sieves according to ISO standard ISO 3310-1:2016 (Test sieves—Technical requirements and testing—Part 1: Test sieves of metal wire cloth). The sieving was done using a single sieve at a time using the appropriate sieve size (75 gm, 180 gm, 425 gm). The sieving was done according to the process described in Ph.Eur. 2.9.38 (Particle-size distribution estimation by analytical sieving).
The sieve was tared. 10 grams of the particle mixture was weighed on the sieve. The sieve was placed on air jet sieve unit and covered with a lid. The vacuum cleaner was switched on, thereby creating a vacuum inside the sieving chamber. The sieving under vacuum was continued for 3 minutes. The finest particles were pulled downwards trough the sieve and the coarse particles remained on the sieve. At the end of the sieving process, the sieve was weighed and the mass of particles remained on the sieve was determined. The sieving process was done as described above using one sieve at a time until the particle size distribution was determined.

[3] = alcohols, esters, ethers and hydrocarbons; cited from earlier work

| Structure (SMILES) | Particle size / particle size distribution by laser light diffraction, in words [1] | Particle size distribution (Alpine AJS) <425 μm [2] [%] | Particle size distribution (Alpine AJS) >75 μm [2] [%] | Particle size distribution (Alpine AJS) >180 μm [2] [%] | Dv10 [1] [μm] | Dv50 [1] [μm] | Dv90 [1] [μm] | Solubility in most organic solvents [3] |
| --- | --- | --- | --- | --- | --- | --- | --- | --- |
| O=C1CN(/N=C/c2ccc([N+](=O)[O-])o2)C(=O)N1 [Comparison example 8, nitrofurantoin anhydrate, reference compound] | smaller than in example 2 | – | – | – | – | – | – | – |
| O=C1CN(/N=C/c2ccc([N+](=O)[O-])o2)C(=O)N1 [Comparison Example 9, nitrofurantoin anhydrate, reference compound] | – | 27 | 99 | 89 | – | – | – | – |
| O=C1CN(/N=C/c2ccc([N+](=O)[O-])o2)C(=O)N1 [Nitrofurantoin anhydrate, 1-[[(5-nitro-2-furanyl)methylene]amino]-2,4-imidazolidinedione] | – | – | – | – | – | – | – | sparingly soluble |
| O=C1CN(/N=C/c2ccc([N+](=O)[O-])o2)C(=O)N1 [Example 6, nitrofurantoin anhydrate] | smaller than in example 2 | 98 | 87 | 10 | – | – | – | – |
| O=C1CN(/N=C/c2ccc([N+](=O)[O-])o2)C(=O)N1 [Example 7, nitrofurantoin anhydrate] | smaller than in example 2 | 99 | 94 | 36 | – | – | – | – |
| O=C1CN(/N=C/c2ccc([N+](=O)[O-])o2)C(=O)N1 [Example 4, nitrofurantoin anhydrate] | – | 98 | 99 | 80 | – | – | – | – |
| O=C1CN(/N=C/c2ccc([N+](=O)[O-])o2)C(=O)N1 [Example 3, nitrofurantoin anhydrate] | – | 98 | 97 | 68 | – | – | – | – |
| O=C1CN(/N=C/c2ccc([N+](=O)[O-])o2)C(=O)N1 [Example 1, nitrofurantoin anhydrate] | – | 96 | 99 | 76 | – | – | – | – |

More lines, main results first:

| Particle size / particle size distribution by laser light diffraction, in words [1] | Particle size distribution (Alpine AJS) <425 μm [2] [%] | Particle size distribution (Alpine AJS) >75 μm [2] [%] | Particle size distribution (Alpine AJS) >180 μm [2] [%] | Dv10 [1] [μm] | Dv50 [1] [μm] | Dv90 [1] [μm] | Structure (SMILES) | Solubility in most organic solvents [3] |
| --- | --- | --- | --- | --- | --- | --- | --- | --- |
| narrow particle size distribution | 95 | 98 | 72 | 126 | 264 | 448 | O=C1CN(/N=C/c2ccc([N+](=O)[O-])o2)C(=O)N1 [Example 2a, nitrofurantoin anhydrate] | – |
| – | 97 | 96 | 51 | – | – | – | O=C1CN(/N=C/c2ccc([N+](=O)[O-])o2)C(=O)N1 [Example 5a, nitrofurantoin anhydrate] | – |
| – | 99 | 93 | 51 | – | – | – | O=C1CN(/N=C/c2ccc([N+](=O)[O-])o2)C(=O)N1 [Example 5c, nitrofurantoin anhydrate] | – |
| narrow particle size distribution | 98 | 98 | 67 | 163 | 348 | 667 | O=C1CN(/N=C/c2ccc([N+](=O)[O-])o2)C(=O)N1 [Example 2b, nitrofurantoin anhydrate] | – |
| – | 98 | 95 | 52 | – | – | – | O=C1CN(/N=C/c2ccc([N+](=O)[O-])o2)C(=O)N1 [Example 5b, nitrofurantoin anhydrate] | – |
| narrow particle size distribution | 95 | 98 | 70 | 118 | 252 | 466 | O=C1CN(/N=C/c2ccc([N+](=O)[O-])o2)C(=O)N1 [Example 2c, nitrofurantoin anhydrate] | – |
